# Results from BigSolDB 2.1.
smiles,measurement,setting,value
O=C(O)c1c(O)cccc1O,solubility (mole fraction),"in ethanol, 278.15 K",0.221
same,solubility (mole fraction),"in ethanol, 283.15 K",0.234
same,solubility (mole fraction),"in ethanol, 288.15 K",0.245
same,solubility (mole fraction),"in ethanol, 293.15 K",0.258
same,solubility (mole fraction),"in ethanol, 298.15 K",0.273
same,solubility (mole fraction),"in ethanol, 303.15 K",0.286
same,solubility (mole fraction),"in ethanol, 308.15 K",0.294
same,solubility (mole fraction),"in ethanol, 313.15 K",0.306
same,solubility (mole fraction),"in ethanol, 318.15 K",0.318
same,solubility (mole fraction),"in isopropanol, 278.15 K",0.225
same,solubility (mole fraction),"in isopropanol, 283.15 K",0.24
same,solubility (mole fraction),"in isopropanol, 288.15 K",0.254
same,solubility (mole fraction),"in isopropanol, 293.15 K",0.268
same,solubility (mole fraction),"in isopropanol, 298.15 K",0.28
same,solubility (mole fraction),"in isopropanol, 303.15 K",0.292
same,solubility (mole fraction),"in isopropanol, 308.15 K",0.303
same,solubility (mole fraction),"in isopropanol, 313.15 K",0.315
same,solubility (mole fraction),"in isopropanol, 318.15 K",0.323
same,solubility (mole fraction),"in methanol, 278.15 K",0.2
same,solubility (mole fraction),"in methanol, 283.15 K",0.214
same,solubility (mole fraction),"in methanol, 288.15 K",0.227
same,solubility (mole fraction),"in methanol, 293.15 K",0.247
same,solubility (mole fraction),"in methanol, 298.15 K",0.261
same,solubility (mole fraction),"in methanol, 303.15 K",0.276
same,solubility (mole fraction),"in methanol, 308.15 K",0.284
same,solubility (mole fraction),"in methanol, 313.15 K",0.3
same,solubility (mole fraction),"in methanol, 318.15 K",0.314
same,solubility (mole fraction),"in n-butanol, 278.15 K",0.189
same,solubility (mole fraction),"in n-butanol, 283.15 K",0.202
same,solubility (mole fraction),"in n-butanol, 288.15 K",0.216
same,solubility (mole fraction),"in n-butanol, 293.15 K",0.23
same,solubility (mole fraction),"in n-butanol, 298.15 K",0.245
same,solubility (mole fraction),"in n-butanol, 303.15 K",0.26
same,solubility (mole fraction),"in n-butanol, 308.15 K",0.275
same,solubility (mole fraction),"in n-butanol, 313.15 K",0.29
same,solubility (mole fraction),"in n-butanol, 318.15 K",0.306
